Data from patent US12637472B2, “Benzimidazole heteroatom-containing spiro compound and medicinal use thereof” (Changzhi University, priority 2023, dated 2026).
Read-outs that look alike come from different tables or passages of the source.

Assays:
Assay type in all cases: cell-based
[1] = test system: human gastric adenocarcinoma cells AGS; test: MTT in vitro cell proliferation inhibition experiment, AGS; conditions: MTT method, 48 h contact between compound and cell, read-out: Antiproliferative activity (IC50, μM) AGS
Experimental: (§1) Human liver tumor cells HepG2, human colon cancer cells HCT116, and human gastric adenocarcinoma cells AGS were purchased from the Institute of Basic Medical Sciences, Chinese Academy of Medical Sciences. The cells each were preserved and passaged in the laboratory of the present disclosure according to respective cultivation data. Each cell line was routinely inoculated in a 50 mL cell culture flask, and cultivated with a 10% fetal bovine serum-containing DMEM/IRP-1640 medium at 37° C., 5% CO2, and 100% humidity, where the medium was changed daily. When growing to a confluency of 80% to 90%, cells were digested with a mixture of trypsin and EDTA and passaged according to 1:3.
(§2) An in vitro cell activity and proliferation inhibition experiment was conducted by an MTT method to investigate an impact of a target compound on a survival activity of each cell. Cells at a logarithmic growth phase were inoculated at 5×10^3 cells (100 μL)/well in a 96-well culture plate and cultivated for 24 h, and then compound solutions with different concentrations prepared in advance were added (100 μL) to the plate. At least 3 replicate wells were set for each concentration. A solvent control group without a compound and a blank control group without a cell were set. Edge wells each were filled with 200 μL of sterilized water. […] A liquid in each well was completely removed carefully, 150 μL of DMSO was added to each well, the plate was gently shaken on a microshaker for 10 min to make a purple crystal fully dissolved, and then an absorbance value was determined at 570 nm by a microplate reader. With a cell viability of the solvent control group without a compound as 100%, a cell survival rate was calculated as follows: a cell survival rate=(an absorbance value of a compound group−an absorbance value of the blank control group)/(an absorbance value of the control group−an absorbance value of the blank control group)×100%. A half-maximal inhibitory concentration (IC50) of a compound for a cell was calculated by the Graphpad Prism 5 software.

[2] = test system: human colon cancer cells HCT116; test: MTT in vitro cell proliferation inhibition experiment, HCT116; conditions: 48 h contact between compound and cell, read-out: Antiproliferative activity (IC50, μM) HCT116
Experimental: as §1, §2

[3] = test system: Human liver tumor cells HepG2; test: MTT in vitro cell proliferation inhibition experiment, HepG2; conditions: MTT method, 48 h contact between compound and cell, read-out: Antiproliferative activity (IC50, μM) HepG2
Experimental: as §1, §2

[4] = Homo sapiens, HCT-116, MTT method

SMILES	IC50 ([1]; Homo sapiens)	IC50 [2, 4]	IC50 ([3]; Homo sapiens)	IC50 [1]	IC50 ([2]; MTT method)	IC50 [3]
O=C(c1nc2ccccc2[nH]1)C1C(c2ccc(Cl)cc2)C(c2c[nH]c3ccccc23)NC12C(=O)c1ccccc1C2=O (stereo not drawn) [Compound 43, 3-(1H-benzimidazol-2-carbonyl)-4-(4-chlorophenyl)-5-(1H-indol-3-yl)spiro[inden-2,2′-pyrrolidine]-1,3-dione]	39.7 µM	55.5 µM	34.6 µM	–	–	–
CCOc1ccc(C2C(c3c[nH]c4ccccc34)NC3(C(=O)c4ccccc4C3=O)C2C(=O)c2nc3ccccc3[nH]2)cc1OCC (stereo not drawn) [Compound 45, 3-(1H-benzimidazol-2-carbonyl)-3,4-diethoxyphenyl-5-(1H-indol-3-yl)spiro[inden-2,2′-pyrrolidine]-1,3-dione]	> 100 µM	56.4 µM	> 100 µM	–	–	–
CCOc1ccc(C2C(CC(C)C)NC3(C(=O)c4ccccc4C3=O)C2C(=O)c2nc3ccccc3[nH]2)cc1 (stereo not drawn) [Compound 15, 3-(1H-benzimidazol-2-carbonyl)-4-(4-ethoxyphenyl)-5-isobutylspiro[inden-2,2′-pyrrolidine]-1,3-dione]	85.7 µM	28.8 µM	> 100 µM	–	–	–
CC(C)CC1NC2(C(=O)c3ccccc3C2=O)C(C(=O)c2nc3ccccc3[nH]2)C1c1ccc(Cl)c(F)c1 (stereo not drawn) [Compound 10, 3-(1H-benzimidazol-2-carbonyl)-4-(3-fluoro-4-chlorophenyl)-5-isobutylspiro[inden-2,2′-pyrrolidine]-1,3-dione]	46.7 µM	15.7 µM	87.7 µM	–	–	–
O=C(c1nc2ccccc2[nH]1)C1C(c2ccc(Br)cc2)C(c2c[nH]c3ccccc23)NC12C(=O)c1ccccc1C2=O (stereo not drawn) [Compound 48]	44.2 µM	37.8 µM	40.2 µM	–	–	–
O=C(c1nc2ccccc2[nH]1)C1C(c2ccc(Cl)c(F)c2)C2CCCN2C12C(=O)c1ccccc1C2=O (stereo not drawn) [Compound 2, 2-(1H-benzimidazol-2-carbonyl)-1-(3-fluoro-4-chlorophenyl)-1,2,5,6,7,7a-hexahydrospiro[inden-2,3-pyrrolizine]-1,3-dione]	> 100 µM	> 100 µM	> 100 µM	–	–	–
O=C(c1nc2ccccc2[nH]1)C1C(C2CCCCC2)C2CCCN2C12C(=O)c1ccccc1C2=O (stereo not drawn) [Compound 1, 2-(1H-benzimidazol-2-carbonyl)-1-cyclohexyl-1,2,5,6,7,7a-hexahydrospiroinden-2,3-pyrrolizine-1,3-dione]	40.8 µM	> 100 µM	> 100 µM	–	–	–
CCOc1ccc(C2C(C(C)CC)NC3(C(=O)c4ccccc4C3=O)C2C(=O)c2nc3ccccc3[nH]2)cc1 (stereo not drawn) [Compound 23, 3-(1H-benzimidazol-2-carbonyl)-5-sec-butyl-4-(4-ethoxyphenyl)spiro[inden-2,2′-pyrrolidine]-1,3-dione]	45.8 µM	9.67 µM	8.78 µM	–	–	–
CC(C)C1NC2(C(=O)c3ccccc3C2=O)C(C(=O)c2nc3ccccc3[nH]2)C1c1ccc(Br)cc1 (stereo not drawn) [Compound 32, 3-(1H-benzimidazol-2-carbonyl)-4-(4-bromophenyl)-5-isopropylspiro[inden-2,2′-pyrrolidine]-1,3-dione]	> 100 µM	> 100 µM	66.7 µM	–	–	–
CCOc1ccc(C2C3CCCN3C3(C(=O)c4ccccc4C3=O)C2C(=O)c2nc3ccccc3[nH]2)cc1OCC (stereo not drawn) [Compound 5, 2-(1H-benzimidazol-2-carbonyl)-3,4-diethoxyphenyl-1,2,5,6,7,7a-hexahydrospiroinden-2,3-pyrrolizine-1,3-dione]	36.9 µM	17.4 µM	80.7 µM	–	–	–
CC(C)C1NC2(C(=O)c3ccccc3C2=O)C(C(=O)c2nc3ccccc3[nH]2)C1c1cccc(Br)c1 (stereo not drawn) [Compound 30, 3-(1H-benzimidazol-2-carbonyl)-4-(3-bromophenyl)-5-isopropylspiro[inden-2,2′-pyrrolidine]-1,3-dione]	2.98 µM	3.42 µM	2.34 µM	–	–	–
CCOc1ccc(C2C(CCSC)NC3(C(=O)c4ccccc4C3=O)C2C(=O)c2nc3ccccc3[nH]2)cc1 (stereo not drawn) [Compound 39, 3-(1H-benzimidazol-2-carbonyl)-4-(4-ethoxyphenyl)-5-(2-methylthio)ethylspiro[inden-2,2′-pyrrolidine]-1,3-dione]	> 100 µM	> 100 µM	> 100 µM	–	–	–
CSCCC1NC2(C(=O)c3ccccc3C2=O)C(C(=O)c2nc3ccccc3[nH]2)C1c1ccc(Cl)cc1 (stereo not drawn) [Compound 35, 3-(1H-benzimidazol-2-carbonyl)-4-(4-chlorophenyl)-5-(2-methylthio)ethylspiro[inden-2,2′-pyrrolidine]-1,3-dione]	45.8 µM	42.7 µM	40.5 µM	–	–	–
COc1ccc(C2=N[C@@H](c3ccc(Cl)cc3)[C@@H](c3ccc(Cl)cc3)N2C(=O)N2CCNC(=O)C2)c(OC(C)C)c1 [Nutlin-3a, reference compound]	–	–	–	21.4 µM	21.7 µM	11 µM
CCC(C)C1NC2(C(=O)c3ccccc3C2=O)C(C(=O)c2nc3ccccc3[nH]2)C1c1cccc(Br)c1 (stereo not drawn) [Compound 22, 3-benzimidazol-2-carbonyl-4-(3-bromophenyl)-5-sec-butylspiro[inden-2,2′-pyrrolidine]-1,3-dione]	4.78 µM	5.67 µM	3.45 µM	–	–	–
CC(C)CC1NC2(C(=O)c3ccccc3C2=O)C(C(=O)c2nc3ccccc3[nH]2)C1c1ccc(Cl)cc1 (stereo not drawn) [Compound 11, 3-(1H-benzimidazol-2-carbonyl)-4-(4-chlorophenyl)-5-isobutylspiro[inden-2,2′-pyrrolidine]-1,3-dione]	> 100 µM	30.3 µM	> 100 µM	–	–	–
CCC(C)C1NC2(C(=O)c3ccccc3C2=O)C(C(=O)c2nc3ccccc3[nH]2)C1c1ccc(Cl)c(F)c1 (stereo not drawn) [Compound 18, 3-(1H-benzimidazol-2-carbonyl)-5-sec-butyl-4-(3-fluoro-4-chlorophenyl)spiro[inden-2,2′-pyrrolidine]-1,3-dione]	> 100 µM	> 100 µM	> 100 µM	–	–	–
O=C(c1nc2ccccc2[nH]1)C1C(c2ccc(Cl)c(F)c2)C(c2c[nH]c3ccccc23)NC12C(=O)c1ccccc1C2=O (stereo not drawn) [Compound 42, 3-(1H-benzimidazol-2-carbonyl)-4-(4-chloro-3-fluorophenyl)-5-(1H-indol-3-yl)spiro[inden-2,2′-pyrrolidine]-1,3-dione]	3.01 µM	4.78 µM	3.45 µM	–	–	–
CC(C)C1NC2(C(=O)c3ccccc3C2=O)C(C(=O)c2nc3ccccc3[nH]2)C1c1ccc(Cl)cc1 (stereo not drawn) [Compound 27, 3-(1H-benzimidazol-2-carbonyl)-4-(4-chlorophenyl)-5-isopropylspiro[inden-2,2′-pyrrolidine]-1,3-dione]	90.1 µM	> 100 µM	> 100 µM	–	–	–
CSCCC1NC2(C(=O)c3ccccc3C2=O)C(C(=O)c2nc3ccccc3[nH]2)C1c1ccc(Br)cc1 (stereo not drawn) [Compound 40, 3-(1H-benzimidazol-2-carbonyl)-4-(4-bromophenyl)-5-(2-methylthio)ethylspiro[inden-2,2′-pyrrolidine]-1,3-dione]	66.2 µM	56.7 µM	9.56 µM	–	–	–
CSCCC1NC2(C(=O)c3ccccc3C2=O)C(C(=O)c2nc3ccccc3[nH]2)C1C1CCCCC1 (stereo not drawn) [Compound 33, 3-(1H-benzimidazol-2-carbonyl)-4-cyclohexyl-5-(methylthio)ethylspiro[inden-2,2′-pyrrolidine]-1,3-dione]	9.77 µM	15.5 µM	12.5 µM	–	–	–
CCC(C)C1NC2(C(=O)c3ccccc3C2=O)C(C(=O)c2nc3ccccc3[nH]2)C1c1ccc(Br)cc1 (stereo not drawn) [Compound 24, 3-(1H-benzimidazol-2-carbonyl)-4-(4-bromophenyl)-5-sec-butylspiro[inden-2,2′-pyrrolidine]-1,3-dione]	3.67 µM	45.8 µM	67.8 µM	–	–	–
CCOc1ccc(C2C(C(C)C)NC3(C(=O)c4ccccc4C3=O)C2C(=O)c2nc3ccccc3[nH]2)cc1OCC (stereo not drawn) [Compound 29, 3-(1H-benzimidazol-2-carbonyl)-3,4-diethoxyphenyl-5-isopropylspiro[inden-2,2′-pyrrolidine]-1,3-dione]	67.1 µM	53.2 µM	44.6 µM	–	–	–
Cc1ccc(C2C(CC(C)C)NC3(C(=O)c4ccccc4C3=O)C2C(=O)c2nc3ccccc3[nH]2)cc1 (stereo not drawn) [Compound 12, 3-(1H-benzimidazol-2-carbonyl)-5-isobutyl-4-p-tolylspiro[inden-2,2′-pyrrolidine]-1,3-dione]	42.7 µM	14.1 µM	> 100 µM	–	–	–
